Results as given in PubChem BioAssay AID1918995 (Molecular Pharmacology Branch, DTP, NCI, 2023).

System: 324938-238-R-J1-PDC complex spheroid growth, % test/control
Test: Anticancer human tumor 324938-238-R-J1-PDC patient-derived bladder carcinoma cell line growth inhibition [AhR]
Conditions: for IC50: curve of first compound; for viability, T/C: stronger effect = lower value
Method in brief: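 Agents were dosed in half-log steps down from roughly clinical Cmax, or from 10 microM where Cmax was unknown, alone and with AhR antagonists. Read-out: percent test/control growth of tumor spheroids containing HUVEC and MSC stromal cells.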

[1] = second compound 0.1 µM, first compound 0.0316 µM
[2] = second compound 0.1 µM, first compound 0.1 µM
[3] = second compound 0.316 µM, first compound 0.0316 µM
[4] = second compound 0.316 µM, first compound 0.1 µM
[5] = second compound 1 µM, first compound 0.0316 µM
[6] = second compound 1 µM, first compound 0.1 µM
[7] = second compound 3.16 µM, first compound 0.0316 µM
[8] = second compound 3.16 µM, first compound 0.1 µM
[9] = second compound 10 µM, first compound 0.0316 µM
[10] = second compound 10 µM, first compound 0.1 µM
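Also: spheroids exposed to agents for seven days before viability read.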

## CC1(C)CCC(CN2CCN(c3ccc(C(=O)NS(=O)(=O)c4ccc(NCC5CCOCC5)c([N+](=O)[O-])c4)c(Oc4cnc5[nH]ccc5c4)c3)CC2)=C(c2ccc(Cl)cc2)C1 + Cc1ccccc1N=Nc1ccc(NC(=O)c2ccnn2C)c(C)c1
Second compound 0.1 µM
  IC50: 9.57 µM
Second compound 0.316 µM
  IC50: > 10 µM
Second compound 1 µM
  IC50: 8.76 µM
Second compound 3.16 µM
  IC50: 6 µM
Second compound 10 µM
  IC50: 5.68 µM
[1]
  viability, T/C: 87.7%
[2]
  viability, T/C: 92.8%
Second compound 0.1 µM, first compound 0.316 µM
  viability, T/C: 93.6%
Second compound 0.1 µM, first compound 1 µM
  viability, T/C: 87.8%
Second compound 0.1 µM, first compound 3.16 µM
  viability, T/C: 80.7%
Second compound 0.1 µM, first compound 10 µM
  viability, T/C: 48.8%
[3]
  viability, T/C: 89.4%
[4]
  viability, T/C: 90.5%
Second compound 0.316 µM, first compound 0.316 µM
  viability, T/C: 88%
Second compound 0.316 µM, first compound 1 µM
  viability, T/C: 83.3%
Second compound 0.316 µM, first compound 3.16 µM
  viability, T/C: 72%
Second compound 0.316 µM, first compound 10 µM
  viability, T/C: 52%
[5]
  viability, T/C: 83.5%
[6]
  viability, T/C: 85.8%
Second compound 1 µM, first compound 0.316 µM
  viability, T/C: 80.7%
Second compound 1 µM, first compound 1 µM
  viability, T/C: 71.8%
Second compound 1 µM, first compound 3.16 µM
  viability, T/C: 71.1%
Second compound 1 µM, first compound 10 µM
  viability, T/C: 46.7%
[7]
  viability, T/C: 72.4%
[8]
  viability, T/C: 71.8%
Second compound 3.16 µM, first compound 0.316 µM
  viability, T/C: 68.9%
Second compound 3.16 µM, first compound 1 µM
  viability, T/C: 69%
Second compound 3.16 µM, first compound 3.16 µM
  viability, T/C: 61.3%
Second compound 3.16 µM, first compound 10 µM
  viability, T/C: 41%
[9]
  viability, T/C: 73.8%
[10]
  viability, T/C: 70.2%
Second compound 10 µM, first compound 0.316 µM
  viability, T/C: 69.6%
Second compound 10 µM, first compound 1 µM
  viability, T/C: 67.9%
Second compound 10 µM, first compound 3.16 µM
  viability, T/C: 58%
Second compound 10 µM, first compound 10 µM
  viability, T/C: 41.9%

## CCN(c1cc(-c2ccc(CN3CCOCC3)cc2)cc(C(=O)NCc2c(C)cc(C)[nH]c2=O)c1C)C1CCOCC1 + Cc1ccccc1N=Nc1ccc(NC(=O)c2ccnn2C)c(C)c1
Second compound 0.1 µM
  IC50: > 3 µM
Second compound 0.316 µM
  IC50: > 3 µM
Second compound 1 µM
  IC50: > 3 µM
Second compound 3.16 µM
  IC50: > 3 µM
Second compound 10 µM
  IC50: > 3 µM
Second compound 0.1 µM, first compound 0.00949 µM
  viability, T/C: 123%
Second compound 0.1 µM, first compound 0.03 µM
  viability, T/C: 113%
Second compound 0.1 µM, first compound 0.0949 µM
  viability, T/C: 111%
Second compound 0.1 µM, first compound 0.3 µM
  viability, T/C: 93.2%
Second compound 0.1 µM, first compound 0.949 µM
  viability, T/C: 96.2%
Second compound 0.1 µM, first compound 3 µM
  viability, T/C: 93.3%
Second compound 0.316 µM, first compound 0.00949 µM
  viability, T/C: 100%
Second compound 0.316 µM, first compound 0.03 µM
  viability, T/C: 111%
Second compound 0.316 µM, first compound 0.0949 µM
  viability, T/C: 106%
Second compound 0.316 µM, first compound 0.3 µM
  viability, T/C: 103%
Second compound 0.316 µM, first compound 0.949 µM
  viability, T/C: 108%
Second compound 0.316 µM, first compound 3 µM
  viability, T/C: 94.8%
Second compound 1 µM, first compound 0.00949 µM
  viability, T/C: 102%
Second compound 1 µM, first compound 0.03 µM
  viability, T/C: 101%
Second compound 1 µM, first compound 0.0949 µM
  viability, T/C: 94.9%
Second compound 1 µM, first compound 0.3 µM
  viability, T/C: 90%
Second compound 1 µM, first compound 0.949 µM
  viability, T/C: 98.7%
Second compound 1 µM, first compound 3 µM
  viability, T/C: 93.2%
Second compound 3.16 µM, first compound 0.00949 µM
  viability, T/C: 82.4%
Second compound 3.16 µM, first compound 0.03 µM
  viability, T/C: 100%
Second compound 3.16 µM, first compound 0.0949 µM
  viability, T/C: 81.9%
Second compound 3.16 µM, first compound 0.3 µM
  viability, T/C: 90.2%
Second compound 3.16 µM, first compound 0.949 µM
  viability, T/C: 91.8%
Second compound 3.16 µM, first compound 3 µM
  viability, T/C: 93.6%
Second compound 10 µM, first compound 0.00949 µM
  viability, T/C: 88.4%
Second compound 10 µM, first compound 0.03 µM
  viability, T/C: 89.6%
Second compound 10 µM, first compound 0.0949 µM
  viability, T/C: 82%
Second compound 10 µM, first compound 0.3 µM
  viability, T/C: 87%
Second compound 10 µM, first compound 0.949 µM
  viability, T/C: 77.5%
Second compound 10 µM, first compound 3 µM
  viability, T/C: 84.8%

## Cn1ncnc1C1c2n[nH]c(=O)c3cc(F)cc(c23)NC1c1ccc(F)cc1 (stereo not given) + Cc1ccccc1N=Nc1ccc(NC(=O)c2ccnn2C)c(C)c1
Second compound 0.1 µM
  IC50: > 0.1 µM
Second compound 0.316 µM
  IC50: > 0.1 µM
Second compound 1 µM
  IC50: > 0.1 µM
Second compound 3.16 µM
  IC50: > 0.1 µM
Second compound 10 µM
  IC50: > 0.1 µM
Second compound 0.1 µM, first compound 0.000316 µM
  viability, T/C: 103%
Second compound 0.1 µM, first compound 0.001 µM
  viability, T/C: 114%
Second compound 0.1 µM, first compound 0.00316 µM
  viability, T/C: 107%
Second compound 0.1 µM, first compound 0.01 µM
  viability, T/C: 83.6%
[1]
  viability, T/C: 81.1%
[2]
  viability, T/C: 63.8%
Second compound 0.316 µM, first compound 0.000316 µM
  viability, T/C: 98.4%
Second compound 0.316 µM, first compound 0.001 µM
  viability, T/C: 100%
Second compound 0.316 µM, first compound 0.00316 µM
  viability, T/C: 103%
Second compound 0.316 µM, first compound 0.01 µM
  viability, T/C: 74.4%
[3]
  viability, T/C: 76.1%
[4]
  viability, T/C: 69%
Second compound 1 µM, first compound 0.000316 µM
  viability, T/C: 92%
Second compound 1 µM, first compound 0.001 µM
  viability, T/C: 96.5%
Second compound 1 µM, first compound 0.00316 µM
  viability, T/C: 95.7%
Second compound 1 µM, first compound 0.01 µM
  viability, T/C: 66.5%
[5]
  viability, T/C: 85%
[6]
  viability, T/C: 62.4%
Second compound 3.16 µM, first compound 0.000316 µM
  viability, T/C: 83.9%
Second compound 3.16 µM, first compound 0.001 µM
  viability, T/C: 83.7%
Second compound 3.16 µM, first compound 0.00316 µM
  viability, T/C: 86.9%
Second compound 3.16 µM, first compound 0.01 µM
  viability, T/C: 73.6%
[7]
  viability, T/C: 78.3%
[8]
  viability, T/C: 61.1%
Second compound 10 µM, first compound 0.000316 µM
  viability, T/C: 78.2%
Second compound 10 µM, first compound 0.001 µM
  viability, T/C: 77.8%
Second compound 10 µM, first compound 0.00316 µM
  viability, T/C: 77.2%
Second compound 10 µM, first compound 0.01 µM
  viability, T/C: 73.5%
[9]
  viability, T/C: 69.2%
[10]
  viability, T/C: 66%
